Measurements as given in patent publication EP0986401B1, “P-SELECTIN TRANSLOCATION TO VASCULAR EPITHELIAL LUMEN BY IONIZING RADIATION” (ARCH DEVELOPMENT CORPORATION, priority 1997, dated 1998).
“Also recorded” adds a separate entry of the source. Structures can show the parent of a compound that is named as a salt. Where two headings read alike, the source gives them in different places. Starred links: 1 amine or outer side, 2 acyl side, 3 side chain; linkers in the order of their positions; H or OH if unused. Positions of bridges follow the written chain, without caps; N, C: chain ends. Non-standard residues stand in square brackets, D forms with d. Residues, ends and D or L forms follow the SMILES beside them. Chains are numbered I, II in the order given. Actinocin(9to1) = Cc1c2oc3c(C)ccc(C(=O)[*:1])c3nc-2c(C(=O)[*:2])c(N)c1=O; NMeV = CN[C@H](C(=O)O)C(C)C; Nle = CCCC[C@H](N)C(=O)O; Sar = CNCC(=O)O

Tests used:
selectin = details: cited from earlier work; for block selectin binding to sLe^x: in vitro
[1] = Narasinga Rao et al. (1994); cited from earlier work
HL60 cells = experiment: HL60 leukocyte adhesion to irradiated HUVECs; assay type: cell-based, human; details: 1 mM each; added 4 h after 10 Gy and 30 min prior to HL60 cells
Method: Human leukemia cell line HL60 has been used to quantify leukocyte adhesion to endothelial cells (Jones et al., 1995). HL60 cells were added to human umbilical vein in endothelial cells (HUVECs) after exposure to 10 Gy or cells treated with otherwise identical conditions without irradiation. Cultures were washed and cells were counted using a hemocytometer. […] Each agent blocked the adherence of HL60 cells to irradiated HUVECs.

[2] = rats, orally; Akao et al. (1994); cited from earlier work
P-selectin [3] = experiment: P-selectin translocation (Weibel-Palade body exocytosis) in irradiated HUVEC with enzyme inhibitors, immunofluorescence; assay type: cell-based, human; details: inhibitor added prior to irradiation, 10 Gy
From the text: (§1) The initial step in discerning the potential role of various signal transduction pathways is to add enzyme inhibitors prior to x-radiation. Exocytosis of Weibel-Palade bodies is an active process requiring the translocation of cytoplasmic granules. Previous studies have shown that intracellular signal transduction required for Weibel Palade body translocation involves influx of calcium and protein kinase C activation (calcium, PKC). To determine whether these signaling pathways participate in radiation-mediated Weibel-Palade body exocytosis, the inventors added the intracellular calcium chelator BAPTA and the protein kinase C inhibitor, calphostin, to HUVEC cells prior to irradiation. Cells were then treated with 10 Gy and immunofluorescence was used to localize P-selectin. […] Conversely, the tyrosin kinase inhibitor, herbimycin A, had no effect on Weibel-Palade exocytosis. To determine whether calcium chelation and protein kinase inhibition prevent all molecular responses to ionizing radiation, the inventors' added BAPTA and calphostin prior to radiation-induction of ICAM-1 expression. BAPTA and calphostin had no effect on x-ray induction of ICAM-1. However, herbimycin A and the NFkB inhibitor ALLN attenuated x-ray induction of ICAM-1.

ICAM-1 [4] = experiment: X-ray induction of ICAM-1 expression with enzyme inhibitors; assay type: cell-based, human; details: inhibitor added prior to irradiation
From the text: as §1

P-selectin [5] = experiment: P-selectin translocation in irradiated HUVEC with microtubule or actin agents, confocal immunofluorescence; assay type: cell-based, human; details: for x-ray induced translocation of P-selectin: HUVEC pretreated 45 min, staining 60 minutes after x-irradiation (2 Gy); for 8-fold increase in P-selectin immunofluorescence on the cell surface: x-irradiated (2 Gy) HUVEC, confocal microscopy quantified by NIH Image, FIG. 2
E-selectin [6] = details: Hallahan et al., 1995, 1996; cited from earlier work
ICAM-1 [7] = details: Hallahan et al., 1995, 1996; cited from earlier work
E-selectin [8] = biological target: T1, E-selectin (Homo sapiens, UniProt P16581); details: Nelson et al. (1993); cited from earlier work
T1 sequence (P16581 22-610): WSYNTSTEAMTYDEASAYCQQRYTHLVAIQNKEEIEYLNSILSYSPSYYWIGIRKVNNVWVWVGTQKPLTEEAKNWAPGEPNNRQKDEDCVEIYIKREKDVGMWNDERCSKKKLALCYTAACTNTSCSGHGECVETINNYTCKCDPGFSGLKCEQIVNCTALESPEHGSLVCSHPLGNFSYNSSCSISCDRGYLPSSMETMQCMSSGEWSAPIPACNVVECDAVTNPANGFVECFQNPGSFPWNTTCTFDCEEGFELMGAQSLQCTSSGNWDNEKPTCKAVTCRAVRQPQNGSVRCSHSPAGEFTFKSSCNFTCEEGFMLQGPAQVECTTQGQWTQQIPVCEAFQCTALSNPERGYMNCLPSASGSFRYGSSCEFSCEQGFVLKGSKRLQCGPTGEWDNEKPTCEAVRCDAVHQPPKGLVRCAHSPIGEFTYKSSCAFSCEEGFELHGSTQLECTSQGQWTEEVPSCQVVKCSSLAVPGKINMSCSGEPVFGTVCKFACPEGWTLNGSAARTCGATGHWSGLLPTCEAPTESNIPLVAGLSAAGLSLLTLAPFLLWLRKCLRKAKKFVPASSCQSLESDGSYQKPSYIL

von Willebrand Factor = details: Vischer et al., 1995; cited from earlier work
vWF = details: disruption of microtubules; cited from earlier work

Compound: Cc1c(C(=O)O)c(O)cc2c1C(=O)c1c(O)c([C@H]3O[C@H](CO)[C@@H](O)[C@H](O)[C@H]3O)c(O)c(O)c1C2=O [carmine]
- block selectin binding to sLe^x (selectin; Narasinga Rao et al. (1994)): effective

Compound: CC1OC(OC2CCC3(C)C(CCC4(C)C3C(=O)C=C3C5CC(C)(C(=O)O)CCC5(C)CCC34C)C2(C)C)C(O)C(O)C1O [L-fucose derivative]
- selectin inhibition activity in vitro (selectin; sugars substituted for the glucuronic acids of glycyrrhizin, Narasinga Rao et al. (1994)): most active
- in vivo efficacy (anti-inflammatory activity) [1]: most active

Compound: CC1(C)[C@@H](O[C@H]2O[C@H](C(=O)O)[C@@H](O)[C@H](O)[C@H]2O[C@@H]2O[C@H](C(=O)O)[C@@H](O)[C@H](O)[C@H]2O)CC[C@]2(C)[C@H]3C(=O)C=C4[C@@H]5C[C@@](C)(C(=O)O)CC[C@]5(C)CC[C@@]4(C)[C@]3(C)CC[C@@H]12 [Glycyrrhizin]
- adherence of HL60 cells to irradiated HUVECs (HL60 cells): blocked
- block selectin binding to sLe^x (selectin; Narasinga Rao et al. (1994)): block
- block selectin binding to sLe^x (selectin; Narasinga Rao et al. (1994), listed as glycyrrhizin): blocked
- absorption from the gut [2]: poorly absorbed

Compound: calphostin
- P-selectin translocation to the cell membrane (Weibel-Palade exocytosis) (P-selectin [3]): attenuation; also recorded: attenuates
- x-ray induction of ICAM-1 (ICAM-1 [4]): no effect

Compound: C[C@@H]1O[C@@H](O[C@H]2[C@H](O[C@H]3CC[C@@]4(C)[C@@H](CC[C@]5(C)[C@@H]4CC=C4[C@@H]6CC(C)(C)CC[C@]6(C(=O)O)CC[C@]45C)[C@]3(C)CO)OC[C@H](O)[C@@H]2O)[C@H](O)[C@H](O)[C@H]1O [α-Hederin]
- inhibiting concentrations (selectin; selectin binding to sLe^x, Narasinga Rao et al. (1994)): 2 to 3 mM

Compound: [ring-^14C]Chlorhexidine
- block selectin binding to sLe^x (selectin; Narasinga Rao et al. (1994)): effective

Compound: COC(=O)Nc1nc2cc(C(=O)c3cccs3)ccc2[nH]1 [nocodozol]
- x-ray induced translocation of P-selectin (P-selectin [5]): inhibited
- 8-fold increase in P-selectin immunofluorescence on the cell surface (P-selectin [5]): abrogated

Compound: CC(=O)Nc1c(I)c(NC(C)=O)c(I)c(C(=O)O)c1I.CNC[C@H](O)[C@@H](O)[C@H](O)[C@H](O)CO [meglumine diatrizoate]
- block selectin binding to sLe^x (selectin; Narasinga Rao et al. (1994)): effective

Compound: Cc1c(C(=O)O)c(O)cc2c1C(=O)c1c(O)c([C@@H]3O[C@H](CO)[C@@H](O)[C@H](O)[C@H]3O)c(O)c(O)c1C2=O [carminic acid]
- adherence of HL60 cells to irradiated HUVECs (HL60 cells): blocked
- block selectin binding to sLe^x (selectin; Narasinga Rao et al. (1994)): blocked selectin binding at concentrations comparable to those of glycyrrhizin

Compound: Cc1c2oc3c(C)ccc(C(=O)N[C@@H]4C(=O)N[C@H](C(C)C)C(=O)N5CCC[C@H]5C(=O)N(C)CC(=O)N(C)[C@@H](C(C)C)C(=O)O[C@@H]4C)c3nc-2c(C(=O)N[C@@H]2C(=O)N[C@H](C(C)C)C(=O)N3CCC[C@H]3C(=O)N(C)CC(=O)N(C)[C@@H](C(C)C)C(=O)O[C@@H]2C)c(N)c1=O [actinomycin D] (I: T[dV]P[Sar][NMeV] / II: T[dV]P[Sar][NMeV]; ester I:1-I:C, II:1-II:C; linker I:N-II:N via Actinocin(9to1))
- radiation-mediated increase in E-selectin mRNA expression (E-selectin [6]): blocked
- radiation-mediated increase in ICAM-1 mRNA expression (ICAM-1 [7]): blocked

Compound: picrocarmine
- block selectin binding to sLe^x (selectin; Narasinga Rao et al. (1994)): effective

Compound: C[C@H]1O[C@H](O[C@H]2[C@H](O)[C@@H](O)[C@@H](O)[C@H](O)[C@@H]2O)[C@@H](N)C[C@@H]1NC(=N)C(=O)O [kasugamycin]
- block selectin binding to sLe^x (selectin; Narasinga Rao et al. (1994)): effective

Compound: COC(=O)CCCCCCCCO[C@@H]1O[C@H](CO)[C@@H](O[C@@H]2O[C@@H](C)[C@@H](O)[C@@H](O)[C@@H]2O)[C@H](O[C@@H]2O[C@H](CO)[C@H](O)[C@H](O[C@]3(C(=O)O)C[C@H](O)[C@@H](NC(C)=O)[C@H]([C@H](O)[C@H](O)CO)O3)[C@H]2O)[C@H]1N [amino substituted sLe^a]
- IC50 (E-selectin [8]): 21 ± 3 µM
- more active than the reducing tetrasaccharide sLe^x (E-selectin [8]): 36 fold

Compound: carmine ammonia
- block selectin binding to sLe^x (selectin; Narasinga Rao et al. (1994)): effective

Compound: C[C@H]1O[C@H](OC2[C@@H](O)[C@@H](O)C(O)[C@H](O)[C@H]2O)[C@@H](N)C[C@@H]1N=C(N)C(=O)O.Cl (some centres unmarked) [kasugamycin hydrochloride]
- block selectin binding to sLe^x (selectin; Narasinga Rao et al. (1994)): effective

Compound: CCCC[C@@H](C=O)NC(=O)[C@H](CC(C)C)NC(=O)[C@H](CC(C)C)NC(C)=O [ALLN] (Ac-Leu-Leu-[Nle]-aldehyde)
- x-ray induction of ICAM-1 (ICAM-1 [4]): attenuated

Compound: CC1(C)[C@@H](O)CC[C@]2(C)[C@H]3C(=O)C=C4[C@@H]5C[C@@](C)(C(=O)O)CC[C@]5(C)CC[C@@]4(C)[C@]3(C)CC[C@@H]12 [18-β-glycyrrhetinic acid]
- IC50 (selectin; Narasinga-Rao et al. (1994), read-out: IC50 blocking selectin activity): > 2000 µM

Compound: escin
- block selectin binding to sLe^x (selectin; Narasinga Rao et al. (1994)): effective

Compound: Neu5Acα2-3Galβ1-4 [Fucα1-3]GlcNAc [sialyl Lewis X]
- adherence of HL60 cells to irradiated HUVECs (HL60 cells): blocked

Compound: CC1(C)[C@@H](O[C@H]2O[C@H](C(=O)O)[C@@H](O)[C@H](O)[C@H]2O[C@@H]2O[C@H](C(=O)O)[C@@H](O)[C@H](O)[C@H]2O)CC[C@]2(C)[C@H]3C(=O)C=C4[C@@H]5C[C@@](C)(C(=O)O)CC[C@]5(C)CC[C@@]4(C)[C@]3(C)CC[C@@H]12 [glycyrrhizic acid (NH^+4), glycyrrhizic acid]
- block selectin binding to sLe^x (selectin; Narasinga Rao et al. (1994)): blocked

Compound: CO[C@H]1[C@@H](OC)C[C@H](C)[C@@H](OC)C2=CC(=O)C=C(NC(=O)/C(C)=C/C=C\[C@H](OC)[C@@H](OC(N)=O)/C(C)=C/[C@@H]1C)C2=O [herbimycin A]
- P-selectin translocation to the cell membrane (Weibel-Palade exocytosis) (P-selectin [3]): no effect
- x-ray induction of ICAM-1 (ICAM-1 [4]): attenuated

Compound: CC(=O)Nc1c(I)c(C(=O)O)c(I)c(N(C)C(C)=O)c1I [metrizoic acid (meglumine salt), metrizoic acid]
- block selectin binding to sLe^x (selectin; Narasinga Rao et al. (1994)): effective

Compound: O=C(O)CN(CC(=O)O)c1ccccc1OCCOc1ccccc1N(CC(=O)O)CC(=O)O [BAPTA]
- P-selectin translocation to the cell membrane (Weibel-Palade exocytosis) (P-selectin [3]): attenuation
- x-ray induction of ICAM-1 (ICAM-1 [4]): no effect
- superoxide induced von Willebrand Factor exocytosis (von Willebrand Factor): inhibited

Compound: C=C1[C@@H](C)[C@H]2[C@H](Cc3ccccc3)NC(=O)[C@]23OC(=O)/C=C/[C@H](O)CCC[C@@H](C)C/C=C/[C@H]3[C@@H]1O [cytochalasin-B]
- x-ray induced translocation of P-selectin (P-selectin [5]): no inhibition
- 8-fold increase in P-selectin immunofluorescence on the cell surface (P-selectin [5]): not

Compound: O=C(O)[C@H]1O[C@H](O[C@@H]2[C@H](O)[C@@H](O)[C@@H](O[C@@H]3[C@H](O)[C@@H](O)C(O)O[C@@H]3C(=O)O)O[C@@H]2C(=O)O)[C@H](O)[C@@H](O)[C@H]1O (some centres unmarked) [trigalacturonic acid]
- block selectin binding to sLe^x (selectin; Narasinga Rao et al. (1994)): effective

Compound: COc1cc2c(c(OC)c1OC)-c1ccc(OC)c(=O)cc1[C@@H](NC(C)=O)CC2 [colchicine]
- vWF secretion from thrombin-treated endothelial cells (vWF): attenuates

Compound: O=C(O)c1cc(O)c2c(c1)C(=O)c1cccc(O[C@@H]3O[C@H](CO)[C@@H](O)[C@H](O)[C@H]3O)c1C2=O [rhein-8-glucoside]
- block selectin binding to sLe^x (selectin; Narasinga Rao et al. (1994)): effective

Compound: CC(C)C[C@H](NP(=O)(O)O[C@@H]1O[C@@H](C)[C@H](O)[C@@H](O)[C@H]1O)C(=O)N[C@@H](Cc1c[nH]c2ccccc12)C(=O)[O-].CC(C)C[C@H](NP(=O)(O)O[C@@H]1O[C@@H](C)[C@H](O)[C@@H](O)[C@H]1O)C(=O)N[C@@H](Cc1c[nH]c2ccccc12)C(=O)[O-].[Na+].[Na+] [N-(α-Rhamnopyranosyloxy hydroxyphosphonyl)- Leu-Trp]
- block selectin binding to sLe^x (selectin; Narasinga Rao et al. (1994)): effective
